Measured values as given in patent US20240417405A1, “Substituted Spiro Derivatives” (Janssen Pharmaceutica NV, priority 2021, published 2024).

Legend:
[1] = target: T1, menin/MLL (terbium chelate-labeled menin, FITC-MBM1 peptide) (Homo sapiens, UniProt O00255, T541A); assay: Menin/MLL homogenous time-resolved fluorescence (HTRF) assay; type: binding; conditions: 30 min incubation
T1 construct: Menin (a.a 1-610-6xhis tag)
T1 sequence (O00255 with tags, fused parts or gaps T541A): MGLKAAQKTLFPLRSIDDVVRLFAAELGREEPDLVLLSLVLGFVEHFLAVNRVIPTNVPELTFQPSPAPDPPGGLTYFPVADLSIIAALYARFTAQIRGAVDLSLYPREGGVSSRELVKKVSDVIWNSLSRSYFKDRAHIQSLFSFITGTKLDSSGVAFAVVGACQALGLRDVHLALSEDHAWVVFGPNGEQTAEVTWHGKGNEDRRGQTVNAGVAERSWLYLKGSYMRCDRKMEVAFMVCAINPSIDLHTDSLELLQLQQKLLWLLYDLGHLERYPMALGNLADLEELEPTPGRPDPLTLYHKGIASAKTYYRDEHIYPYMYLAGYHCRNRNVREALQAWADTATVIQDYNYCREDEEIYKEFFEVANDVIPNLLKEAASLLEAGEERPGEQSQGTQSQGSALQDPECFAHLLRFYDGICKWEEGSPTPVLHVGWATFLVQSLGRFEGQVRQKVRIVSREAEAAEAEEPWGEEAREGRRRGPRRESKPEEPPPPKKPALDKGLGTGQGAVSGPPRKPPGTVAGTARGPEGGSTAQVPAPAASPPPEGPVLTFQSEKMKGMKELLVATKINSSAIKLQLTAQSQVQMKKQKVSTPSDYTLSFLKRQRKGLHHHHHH
Method in brief: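 Terbium-labeled menin (aa 1-610, His-tagged; 200 pM) preincubated 30 min with compound, then 75 nM FITC-MBM1 peptide added for 15 min at ambient temperature in pH 7.5 Tris buffer, 0.5% DMSO. HTRF ratio 520/490 nm converted to % inhibition. IC50 came from an 11-point four-fold titration from 10 μM, floor 0.1 nM.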

KO-52 cells = assay: Proliferation assay, spheroid-like growth, KO-52 (MLL wildtype control cell line); type: cell-based, human; conditions: Homo sapiens, 192 h, KO-52 control cells, 8 days, confluence as measure of spheroid size; read-out: spheroid assay_OneTime KO-52 IC50
Method in brief: (§1)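 Cells seeded in ultra-low attachment round-bottom wells (200 MOLM14 or 300 KO-52 per well) with compound at several concentrations, DMSO 0.3%, grown 8 days at 37° C, 5% CO2. Spheroid size taken as confluence from day-8 live-cell images; IC50 from variable-slope fit, DMSO as 0% and high-dose reference compound as 100% effect.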

MOLM14 cells = assay: Proliferation assay, spheroid-like growth, MOLM14 (MLL-AF9 rearranged); type: cell-based, human; conditions: Homo sapiens, MOLM-14, 192 h, 8 days, confluence as measure of spheroid size, read-out: spheroid assay_OneTime MOLM14 IC50
Method in brief: as §1

Structure (SMILES)	IC50 [1] [nM]	IC50 (KO-52 cells) [nM]	IC50 (MOLM14 cells) [nM]
CC(C)[C@@H]([C@H]1C[C@@H](N2CCC(C(=O)N(C)C)CC2)C1)N1CC2(CCN(c3ncnnc3Oc3ccc(F)cc3-c3ncncc3C3CC3)C2)C1 (single isomer, unassigned) [Compound 100]	0.1	9810	33
CC(C)[C@@H]([C@H]1C[C@@H](N2CC3(CCO3)C2)C1)N1CC2(CCN(c3ncnnc3Oc3ccc(F)cc3-c3ncncc3C3CC3)C2)C1 (single isomer, unassigned) [Compound 101]	0.1	1070	10
CC(C)[C@@H]([C@H]1C[C@@H](N2CC3(CCO3)C2)C1)N1CC2(CCN(c3ncnnc3Oc3ccc(F)cc3-c3cnncc3C3CC3)C2)C1 (single isomer, unassigned) [Compound 102]	0.1	8470	12
CC(C)[C@@H]([C@H]1C[C@H](N2CC3(CCO3)C2)C1)N1CC2(CCN(c3ncnnc3Oc3ccc(F)cc3-c3cnncc3C3CC3)C2)C1 (single isomer, unassigned) [Compound 103]	0.1	12200	100
CC(=O)N1CCN([C@H]2C[C@@H]([C@H](C(C)C)N3CC4(CCN(c5ncnnc5Oc5ccc(F)cc5-c5cnncc5C5CC5)C4)C3)C2)CC1 (single isomer, unassigned) [Compound 104]	0.2	11800	73
CC(C)[C@@H]([C@H]1C[C@@H](N2CC3(COC3)C2)C1)N1CC2(CCN(c3ncnnc3Oc3ccc(F)cc3-c3cnncc3C3CC3)C2)C1 (single isomer, unassigned) [Compound 106]	0.1	4990	11
CC(C)[C@@H]([C@H]1C[C@H](N2CC3(COC3)C2)C1)N1CC2(CCN(c3ncnnc3Oc3ccc(F)cc3-c3cnncc3C3CC3)C2)C1 (single isomer, unassigned) [Compound 107]	0.1	> 15000	76
CO[C@H]1CCN([C@H]2C[C@@H]([C@H](C(C)C)N3CC4(CCN(c5ncnnc5Oc5ccc(F)cc5-c5cnncc5C5CC5)C4)C3)C2)C1 (single isomer, unassigned) [Compound 108]	0.2	2650	1
CO[C@H]1CCN([C@H]2C[C@H]([C@H](C(C)C)N3CC4(CCN(c5ncnnc5Oc5ccc(F)cc5-c5cnncc5C5CC5)C4)C3)C2)C1 (single isomer, unassigned) [Compound 109]	0.1	> 15000	53
CC(C)[C@@H]([C@H]1C[C@@H](N2CC[C@@H](C(=O)N(C)C)C2)C1)N1CC2(CCN(c3ncnnc3Oc3ccc(F)cc3-c3cnncc3C3CC3)C2)C1 (single isomer, unassigned) [Compound 110]	0.1	6840	12
CC(C)[C@@H]([C@H]1C[C@H](N2CC[C@@H](C(=O)N(C)C)C2)C1)N1CC2(CCN(c3ncnnc3Oc3ccc(F)cc3-c3cnncc3C3CC3)C2)C1 (single isomer, unassigned) [Compound 111]	0.2	> 15000	120
CC(C)[C@@H]([C@H]1C[C@@H](N2CC[C@](C)(O)C2)C1)N1CC2(CCN(c3ncnnc3Oc3ccc(F)cc3-c3cnncc3C3CC3)C2)C1 (single isomer, unassigned) [Compound 112]	0.1	10100	6
CC(C)[C@@H]([C@H]1C[C@H](N2CC[C@](C)(O)C2)C1)N1CC2(CCN(c3ncnnc3Oc3ccc(F)cc3-c3cnncc3C3CC3)C2)C1 (single isomer, unassigned) [Compound 113]	0.2	> 15000	200
CC(C)[C@@H]([C@H]1C[C@@H](N2CC[C@@](C)(O)C2)C1)N1CC2(CCN(c3ncnnc3Oc3ccc(F)cc3-c3cnncc3C3CC3)C2)C1 (single isomer, unassigned) [Compound 114]	0.1	14200	8
CC(C)[C@@H]([C@H]1C[C@H](N2CC[C@@](C)(O)C2)C1)N1CC2(CCN(c3ncnnc3Oc3ccc(F)cc3-c3cnncc3C3CC3)C2)C1 (single isomer, unassigned) [Compound 115]	0.2	> 15000	430
CC(C)[C@@H]([C@H]1C[C@@H](N2CC[C@H](C(=O)N(C)C)C2)C1)N1CC2(CCN(c3ncnnc3Oc3ccc(F)cc3-c3cnncc3C3CC3)C2)C1 (single isomer, unassigned) [Compound 116]	0.1	8890	7
CC(C)[C@@H]([C@H]1C[C@H](N2CC[C@H](C(=O)N(C)C)C2)C1)N1CC2(CCN(c3ncnnc3Oc3ccc(F)cc3-c3cnncc3C3CC3)C2)C1 (single isomer, unassigned) [Compound 117]	0.1	> 15000	170
CC(C)[C@H]([C@H]1C[C@@H](N2CC3(CCO3)C2)C1)N1CC2(CCN(c3ncnnc3Oc3ccc(F)cc3-c3cncnc3C3CC3)C2)C1 (single isomer, unassigned) [Compound 145]	0.2	3580	6
CC(C)[C@H]([C@H]1C[C@H](N2CC3(CCO3)C2)C1)N1CC2(CCN(c3ncnnc3Oc3ccc(F)cc3-c3cncnc3C3CC3)C2)C1 (single isomer, unassigned) [Compound 146]	0.2	6600	160
CC(C)[C@H]([C@H]1C[C@@H](N(C)C)C1)N1CC2(CCN(c3ncnnc3Oc3ccc(F)cc3-c3ncccc3C3CC3)C2)C1 (single isomer, unassigned) [Compound 147]	0.1	390	4
CC(C)[C@H]([C@H]1C[C@@H](NC2CC2)C1)N1CC2(CCN(c3ncnnc3Oc3ccc(F)cc3-c3ncccc3C3CC3)C2)C1 (single isomer, unassigned) [Compound 148]	0.2	610	3
CC(C)[C@H]([C@H]1C[C@@H](N2C[C@H]3COC[C@H]3C2)C1)N1CC2(CCN(c3ncnnc3Oc3ccc(F)cc3-c3ncccc3C3CC3)C2)C1 (single isomer, unassigned) [Compound 149]	0.1	510	< 2
CC(C)[C@H]([C@H]1C[C@H](N2C[C@H]3COC[C@H]3C2)C1)N1CC2(CCN(c3ncnnc3Oc3ccc(F)cc3-c3ncccc3C3CC3)C2)C1 (single isomer, unassigned) [Compound 150]	0.1	3140	120
CC(C)[C@H]([C@H]1C[C@@H](N2CC3(COC3)C2)C1)N1CC2(CCN(c3ncnnc3Oc3ccc(F)cc3-c3ncccc3C3CC3)C2)C1 (single isomer, unassigned) [Compound 151]	0.1	2030	4
CC(C)[C@H]([C@H]1C[C@H](N2CC3(COC3)C2)C1)N1CC2(CCN(c3ncnnc3Oc3ccc(F)cc3-c3ncccc3C3CC3)C2)C1 (single isomer, unassigned) [Compound 152]	0.2	3960	49
CC(C)[C@@H]([C@H]1C[C@@H](N(C)C)C1)N1CC2(CCN(c3ncnnc3Oc3ccc(F)cc3-c3ncccc3C3CC3)C2)C1 (single isomer, unassigned) [Compound 153]	5.3	4830	730
CC(C)[C@H](C1CC2(C1)CN(CC1COC1)C2)N1CC2(CCN(c3ncnnc3Oc3ccc(F)cc3-c3cncnc3C3CC3)C2)C1 (single isomer, unassigned) [Compound 154]	0.4	9080	230
CC(C)[C@H](C1CC2(CCN2CC2COC2)C1)N1CC2(CCN(c3ncnnc3Oc3ccc(F)cc3-c3cncnc3C3CC3)C2)C1 (single isomer, unassigned) [Compound 155]	2.3	> 15000	570
CC(C)[C@@H](C1CC2(C1)CN(CC1COC1)C2)N1CC2(CCN(c3ncnnc3Oc3ccc(F)cc3-c3cncnc3C3CC3)C2)C1 (single isomer, unassigned) [Compound 157]	0.2	7770	120
